Experimental findings from US20210214375A1 (LUNDBECK LA JOLLA RESEARCH CENTER, INC., priority 2017, published 2021) are described below.

For orientation: IC50 means the midpoint of a concentration-inhibition curve.

Assay [1] has as its target T1, MAGL (Homo sapiens, UniProt Q99685).
T1 construct: Proteomes (human prefrontal cortex or cell membrane fractions); from tissue
T1 sequence (Q99685 1-303): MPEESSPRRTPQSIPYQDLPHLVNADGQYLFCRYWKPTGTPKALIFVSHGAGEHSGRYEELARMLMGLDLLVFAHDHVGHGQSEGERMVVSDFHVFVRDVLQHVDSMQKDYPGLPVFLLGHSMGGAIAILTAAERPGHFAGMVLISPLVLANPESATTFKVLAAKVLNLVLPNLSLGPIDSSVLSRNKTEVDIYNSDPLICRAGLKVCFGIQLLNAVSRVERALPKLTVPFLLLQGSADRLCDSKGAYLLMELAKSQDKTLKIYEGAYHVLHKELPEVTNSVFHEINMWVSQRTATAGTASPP
The experiment in a line: In vitro competitive activity-based protein profiling (gel-based, FP-Rh or HT-01 probe). The assay is classed as biochemical. The method in brief: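 Human prefrontal cortex or cell membrane proteomes (1.0 mg/mL protein) preincubated with varying inhibitor concentrations 30 min at 37° C. FP-Rh or HT-01 probe (1.0 μL of 50 μM stock) then added for 30 min at room temperature; reactions quenched with SDS loading buffer and resolved by SDS-PAGE.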

Assay [2] addresses T2, MAGL (Mus musculus, UniProt O35678).
T2 construct: from tissue; host or cells: brain of wild-type C57Bl/6J mice
T2 sequence (O35678 1-303): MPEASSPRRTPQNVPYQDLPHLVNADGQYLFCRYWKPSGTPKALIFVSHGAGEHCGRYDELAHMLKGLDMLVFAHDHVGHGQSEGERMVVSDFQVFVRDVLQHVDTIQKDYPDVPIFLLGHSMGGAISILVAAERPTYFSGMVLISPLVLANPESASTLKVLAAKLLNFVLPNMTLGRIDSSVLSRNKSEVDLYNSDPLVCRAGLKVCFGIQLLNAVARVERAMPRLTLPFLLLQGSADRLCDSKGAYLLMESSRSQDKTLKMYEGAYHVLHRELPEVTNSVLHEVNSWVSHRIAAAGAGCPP
In words: Mouse brain proteomes from inhibitor treated mice (oral gavage, brain proteomes analyzed 4 h after administration). The assay is classed as in vivo, mouse (C57Bl/6J). The following applies: brain proteome 4 h after administration, read-out: % Inh 5 mg/kg MGLL (Mouse). On the procedure:
Compounds are tested to assess their MAGL and serine hydrolase activity using the following in vitro and in vivo assays.
Preparation of Mouse Brain Proteomes from Inhibitor Treated Mice.
Inhibitors were administered to wild-type C57Bl/6J by oral gavage in a vehicle of polyethylene glycol. Each animal was sacrificed 4 h following administration and brain proteomes were prepared and analyzed according to previously established methods (See Niphakis, M. J., et al. (2011) ACS Chem. Neurosci. and Long, J. Z., et al. Nat. Chem. Biol. 5:37-44).

Where [3] appears, read: PC3 proteome, read-out: IC50 MGLL PC3 (Human).
[4] abbreviates: PFC (prefrontal cortex) proteome.

Where two headings read alike, the source gives them in different places.

Take `CN(Cc1ccc(C(F)(F)F)cc1N1CCC(C(=O)O)C1)C1(C)CCN(C(=O)OC(C(F)(F)F)C(F)(F)F)CC1` (centres unmarked) [Example 118, 1-(2-(((1-(((1,1,1,3,3,3-Hexafluoropropan-2-yl)oxy)carbonyl)-4-methylpiperidin-4-yl)(methyl)amino)methyl)-5-(trifluoromethyl)phenyl)pyrrolidine-3-carboxylic acid]: the IC50 on MAGL [1] (setting [3]) was less than 100 nM. For the same compound, at MAGL [2], the inhibition at 5 mg/kg was not below 75%.

Consider `CC1(N(CC(=O)O)Cc2ccc(C(F)(F)F)cc2N2CCOCC2)CCN(C(=O)OC(C(F)(F)F)C(F)(F)F)CC1` [Example 124, N-(1-(((1,1,1,3,3,3-Hexafluoropropan-2-yl)oxy)carbonyl)-4-methylpiperidin-4-yl)-N-(2-morpholino-4-(trifluoromethyl)benzyl)glycine], for which the IC50 on MAGL [1] (setting [3]) was less than 100 nM. Besides, the inhibition at 5 mg/kg on MAGL [2] is not below 75%.

For the compound `O=C(O)CN1CC2CC1CN2c1cc(CN2CCC3(CCN(C(=O)OC(C(F)(F)F)C(F)(F)F)CC3)C2)cc(C(F)(F)F)c1` (centres unmarked) [Example 125, 2-(5-{3-[(8-{[(1,1,1,3,3,3-Hexafluoropropan-2-yl)oxy]carbonyl}-2,8-diazaspiro[4.5]decan-2-yl)methyl]-5-(trifluoromethyl)phenyl}-2,5-diazabicyclo[2.2.1]heptan-2-yl)acetic acid], at MAGL [1] (setting [3]), the IC50 is less than 100 nM. Further, the inhibition at 5 mg/kg on MAGL [2] is not above 25%.

Regarding `O=C(O)CN1CC2CC1CN2c1cc(C(F)(F)F)ccc1CN1CCCC12CCN(C(=O)OC(C(F)(F)F)C(F)(F)F)CC2` (centres unmarked) [Example 126, 2-(5-{2-[(8-{[(1,1,1,3,3,3-Hexafluoropropan-2-yl)oxy]carbonyl}-1,8-diazaspiro[4.5]decan-1-yl)methyl]-5-(trifluoromethyl)phenyl}-2,5-diazabicyclo[2.2.1]heptan-2-yl)acetic acid], the IC50 on MAGL [1] (setting [3]) is less than 100 nM. Besides, on MAGL [2], the inhibition at 5 mg/kg was not above 25%.

On to `O=C(O)CN1CC2CC1CN2c1cc(C(F)(F)F)ccc1CN1CC2(CCN(C(=O)OC(C(F)(F)F)C(F)(F)F)CC2)C1` (centres unmarked) [Example 127, 2-(5-{2-[(7-{[(1,1,1,3,3,3-Hexafluoropropan-2-yl)oxy]carbonyl}-2,7-diazaspiro[3.5]nonan-2-yl)methyl]-5-(trifluoromethyl)phenyl}-2,5-diazabicyclo[2.2.1]heptan-2-yl)acetic acid], for which the IC50 on MAGL [1] (setting [3]) was less than 100 nM. The inhibition at 5 mg/kg on MAGL [2] is not above 25%.

As for `O=C(O)CN1CC2CC1CN2c1cc(CN2CCCC23CCN(C(=O)OC(C(F)(F)F)C(F)(F)F)CC3)cc(C(F)(F)F)c1` (centres unmarked) [Example 128, 2-(5-{3-[(8-{[(1,1,1,3,3,3-Hexafluoropropan-2-yl)oxy]carbonyl}-1,8-diazaspiro[4.5]decan-1-yl)methyl]-5-(trifluoromethyl)phenyl}-2,5-diazabicyclo[2.2.1]heptan-2-yl)acetic acid], on MAGL [1] (setting [3]), the IC50 was less than 100 nM. In addition, the inhibition at 5 mg/kg on MAGL [2] is not above 25%.

`CC1(C(=O)O)CN(c2cc(C(F)(F)F)ccc2CN2CC3(CCN(C(=O)OC(C(F)(F)F)C(F)(F)F)CC3)C2)CCO1` (centres unmarked) [Example 130, 4-(2-((7-(((1,1,1,3,3,3-Hexafluoropropan-2-yl)oxy)carbonyl)-2,7-diazaspiro[3.5]nonan-2-yl)methyl)-5-(trifluoromethyl)phenyl)-2-methylmoipholine-2-carboxylic acid]: the IC50 at MAGL [1] (setting [3]) was less than 100 nM. Further, the inhibition at 5 mg/kg on MAGL [2] was not above 25%.

Regarding `CN(Cc1ccc(C(F)(F)F)cc1C1(C(=O)O)CCCC1)C1(C)CCN(C(=O)OC(C(F)(F)F)C(F)(F)F)CC1` [Example 133, 1-(2-{[(1-{[(1,1,1,3,3,3-Hexafluoropropan-2-yl)oxy]carbonyl}-4-methylpiperidin-4-yl)(methyl)amino]methyl}-5-(trifluoromethyl)phenyl)cyclopentane-1-carboxylic acid], the IC50 at MAGL [1] (setting [3]) is less than 100 nM. On MAGL [1] (setting [4]), the “% Inh MGLL PFC (Human, μM)” value was “### (### is ≥ 75%)”. Besides, the inhibition at 5 mg/kg at MAGL [2] was not below 75%.

In the case of `O=C(OC(C(F)(F)F)C(F)(F)F)N1CCC2(CCCN2Cc2cc(Cl)cc(C3(C(=O)O)CCCC3)c2)CC1` [Example 134, 1-{3-Chloro-5-[(8-{[(1,1,1,3,3,3-hexafluoropropan-2-yl)oxy]carbonyl}-1,8-diazaspiro[4.5]decan-1-yl)methyl]phenyl} cyclopentane-1-carboxylic acid], the IC50 on MAGL [1] (setting [3]) was less than 100 nM. In addition, on MAGL [1] (setting [4]), the “% Inh MGLL PFC (Human, μM)” value is on record as “### (### is ≥ 75%)”. In addition, the inhibition at 5 mg/kg on MAGL [2] was not below 75%.

Turning to `CN(Cc1ccc(C(F)(F)F)cc1CN1CCC(C(=O)O)CC1)C1(C)CCN(C(=O)OC(C(F)(F)F)C(F)(F)F)CC1` [Example 137, 1-(2-(((1-(((1,1,1,3,3,3-Hexafluoropropan-2-yl)oxy)carbonyl)-4-methylpiperidin-4-yl)(methyl)amino)methyl)-5-(trifluoromethyl)benzyl)piperidine-4-carboxylic acid], the IC50 on MAGL [1] (setting [3]) was less than 100 nM. Besides, on MAGL [1] (setting [4]), the “% Inh MGLL PFC (Human, μM)” value is on record as “### (### is ≥ 75%)”. On MAGL [2], the inhibition at 5 mg/kg is not below 75%.

Consider `CN(Cc1cc(N2CCOC(C)(C(=O)O)C2)cc(C(F)(F)F)c1)C1(C)CCN(C(=O)OC(C(F)(F)F)C(F)(F)F)CC1` (centres unmarked) [Example 139], for which the IC50 at MAGL [1] (setting [3]) was less than 100 nM; on MAGL [1] (PFC (prefrontal cortex) proteome, read-out: IC50 MGLL PFC (Human)), less than 100 nM. The inhibition at 5 mg/kg on MAGL [2] is not above 25%.

On to `CN(Cc1ccccc1C1(C(=O)O)CCCC1)C1(C)CCN(C(=O)OC(C(F)(F)F)C(F)(F)F)CC1` [Example 141], for which the IC50 on MAGL [1] (setting [3]) was less than 100 nM. The “% Inh MGLL PFC (Human, μM)” value at MAGL [1] (setting [4]) is on record as “### (### is ≥ 75%)”. For the same compound, the inhibition at 5 mg/kg at MAGL [2] was not below 75%.

`CN(Cc1ccc(Cl)cc1C1(C(=O)O)CCCC1)C1(C)CCN(C(=O)OC(C(F)(F)F)C(F)(F)F)CC1` [Example 142, 1-(5-Chloro-2-{[(1-{[(1,1,1,3,3,3-hexafluoropropan-2-yl)oxy]carbonyl}-4-methylpiperidin-4-yl)(methyl)amino]methyl}phenyl) cyclopentane-1-carboxylic acid]: at MAGL [1] (setting [3]), the IC50 was less than 100 nM. For the same compound, the “% Inh MGLL PFC (Human, μM)” value at MAGL [1] (setting [4]) is on record as “### (### is ≥ 75%)”. Besides, on MAGL [2], the inhibition at 5 mg/kg was not below 75%.

As to `CN(Cc1ccc(F)cc1C1(C(=O)O)CCCC1)C1(C)CCN(C(=O)OC(C(F)(F)F)C(F)(F)F)CC1` [Example 143, 1-(5-Fluoro-2-{[(1-{[(1,1,1,3,3,3-hexafluoropropan-2-yl)oxy]carbonyl}-4-methylpiperidin-4-yl)(methyl)amino]methyl}phenyl) cyclopentane-1-carboxylic acid], the IC50 on MAGL [1] (setting [3]) was less than 100 nM. The “% Inh MGLL PFC (Human, μM)” value at MAGL [1] (setting [4]) is “### (### is ≥ 75%)”. Further, on MAGL [2], the inhibition at 5 mg/kg is not below 75%.

For the compound `CC(C)(C#Cc1c(F)cccc1CN1CCCC12CCN(C(=O)OC(C(F)(F)F)C(F)(F)F)CC2)C(=O)O` [Example 147, 4-{2-Fluoro-6-[(8-{[(1,1,1,3,3,3-hexafluoropropan-2-yl)oxy]carbonyl}-1,8-diazaspiro[4.5]decan-1-yl)methyl]phenyl]-2,2-dimethylbut-3-ynoic acid], at MAGL [1] (setting [3]), the IC50 was less than 100 nM. Further, at MAGL [1] (setting [4]), the “% Inh MGLL PFC (Human, μM)” value is on record as “### (### is ≥ 75%)”. Besides, the inhibition at 5 mg/kg on MAGL [2] is not below 75%.

Turning to `O=C(O)CN1CCC2(CCN(c3cc(C(F)(F)F)ccc3CN3CCCC34CCN(C(=O)OC(C(F)(F)F)C(F)(F)F)CC4)CC2)C1` [Example 153, 2-(8-(2-((8-(((1,1,1,3,3,3-Hexafluoropropan-2-yl)oxy)carbonyl)-1,8-diazaspiro[4.5]decan-1-yl)methyl)-5-(trifluoromethyl)phenyl)-2,8-diazaspiro[4.5]decan-2-yl)acetic acid], the IC50 on MAGL [1] (setting [3]) was less than 100 nM. Further, at MAGL [2], the inhibition at 5 mg/kg was not above 25%.

For `O=C(O)CN1CCC2(CC1)CCN(c1cc(C(F)(F)F)ccc1CN1CCCC13CCN(C(=O)OC(C(F)(F)F)C(F)(F)F)CC3)C2` [Example 154, 2-(2-(2-((8-(((1,1,1,3,3,3-Hexafluoropropan-2-yl)oxy)carbonyl)-1,8-diazaspiro[4.5]decan-1-yl)methyl)-5-(trifluoromethvl)phenyl)-2,8-diazaspiro[4.5]decan-8-yl)acetic acid], the IC50 at MAGL [1] (setting [3]) was less than 100 nM. For the same compound, on MAGL [2], the inhibition at 5 mg/kg is not above 25%.

On to `O=C(O)CN1CC2CN(c3cc(C(F)(F)F)ccc3CN3CCCC34CCN(C(=O)OC(C(F)(F)F)C(F)(F)F)CC4)CC2C1` (centres unmarked) [Example 155], for which the IC50 at MAGL [1] (setting [3]) is less than 100 nM. On MAGL [2], the inhibition at 5 mg/kg is not above 25%.
